Broadly, the IC50 is the concentration that inhibits the measured activity by half. High values mean weaker potency, low ones greater potency.

Each structure is given as a SMILES string. Some results are limits rather than exact numbers.

This test deals with T1, human MDM2 (GST-hMDM2 1-188), interaction with biotinylated-p53 (1-83) (Homo sapiens, UniProt Q00987).
T1 construct: Amino acid residues 1-188 of human MDM2 were expressed; made in house; host or cells: Escherichia coli
T1 sequence (Q00987 1-188): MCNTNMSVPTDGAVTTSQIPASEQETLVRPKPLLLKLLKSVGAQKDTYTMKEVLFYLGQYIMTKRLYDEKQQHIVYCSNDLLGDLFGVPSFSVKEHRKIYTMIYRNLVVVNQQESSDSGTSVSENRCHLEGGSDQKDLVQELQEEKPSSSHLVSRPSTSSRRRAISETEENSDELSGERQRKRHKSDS
In words: improved HTRF assay (HTRF2 assay), inhibition of HDM2-p53 interaction. The note with it: 0.2 nM GST-hMDM2, 0.5 nM biotinylated-p53, 100 mM KF. It counts as binding. How it is done: Residues 1-83 of human p53 were expressed as an amino-terminal AviTag™-TrxA-6xHis fusion protein (biotinylated p53) in E. coli. Each protein was purified from cell paste by affinity chromatography.
Specifically, 10 uL of GST-hMDM2 was incubated with 10 ul of diluted compound (various concentrations, serially diluted) in 10% DMSO for 20 minutes at room temperature. 20 uL of biotinylated-p53 was added to the GST-hMDM2+ compound mixture, and then incubated at room temperature for 60 min. 10 uL of detection buffer consisting of SA-XLent, anti-GST cryptate antibody and KF was added to GST-hMDM2, biotinylated-p53 and compound reaction and left at room temperature to reach equilibrium for >4 hrs. The final concentration of DMSO in the reaction was 2%. Time-resolved fluorescence readings were measured on a microplate multilabel reader. Percentage of inhibition was calculated relative to nutlin-3.
Compound `CC[C@@H](CS(=O)(=O)C(C)(C)CC)N1C(=O)[C@@H](CC(=O)O)O[C@H](c2cccc(Cl)c2)[C@H]1c1ccc(Cl)cc1` (single isomer, unassigned) [Example 122, 2-((2R,5R,6R)-6-(3-Chlorophenyl)-5-(4-chlorophenyl)-3-oxo-4-((S)-1-(tert-pentylsulfonyl)butan-2-yl)morpholin-2-yl)acetic acid or 2-((2S,5R,6R)-6-(3-Chlorophenyl)-5-(4-chlorophenyl)-3-oxo-4-((S)-1-(tert-pentylsulfonyl)butan-2-yl)morpholin-2-yl)acetic acid] came in with a half-inhibitory concentration (IC50) of under 1 nM.
For `CC[C@@H](CS(=O)(=O)C(C)(C)CC)N1C(=O)[C@H](CC(=O)O)O[C@H](c2cccc(Cl)c2)[C@H]1c1ccc(Cl)cc1` (single isomer, unassigned) [Example 123, 2-((2S,5R,6R)-6-(3-Chlorophenyl)-5-(4-chlorophenyl)-3-oxo-4-((S)-1-(tert-pentylsulfonyl)butan-2-yl)morpholin-2-yl)acetic acid or 2-((2R,5R,6R)-6-(3-Chlorophenyl)-5-(4-chlorophenyl)-3-oxo-4-((S)-1-(tert-pentylsulfonyl)butan-2-yl)morpholin-2-yl)acetic acid] the value was 1 nM.
Under `CC[C@@H](CS(=O)(=O)C(C)C)N1C(=O)[C@@H](CC(=O)O)O[C@H](c2cc(F)cc(Cl)c2)[C@H]1c1ccc(Cl)cc1` (single isomer, unassigned) [Example 124, 2-((2R,5R,6R)-6-(3-Chloro-5-fluorophenyl)-5-(4-chlorophenyl)-4-((S)-1-(isopropylsulfonyl)butan-2-yl)-3-oxomorpholin-2-yl)acetic acid or 2-((2S,5R,6R)-6-(3-Chloro-5-fluorophenyl)-5-(4-chlorophenyl)-4-((S)-1-(isopropylsulfonyl)butan-2-yl)-3-oxomorpholin-2-yl)acetic acid] stands 2 nM; under `CC[C@@H](CS(=O)(=O)C(C)C)N1C(=O)[C@H](CC(=O)O)O[C@H](c2cc(F)cc(Cl)c2)[C@H]1c1ccc(Cl)cc1` (single isomer, unassigned) [Example 125, 2-((2S,5R,6R)-6-(3-Chloro-5-fluorophenyl)-5-(4-chlorophenyl)-4-((S)-1-(isopropylsulfonyl)butan-2-yl)-3-oxomorpholin-2-yl)acetic acid or 2-((2R,5R,6R)-6-(3-Chloro-5-fluorophenyl)-5-(4-chlorophenyl)-4-((S)-1-(isopropylsulfonyl)butan-2-yl)-3-oxomorpholin-2-yl)acetic acid], 11 nM.
For `CC[C@@H](CS(=O)(=O)c1ccccc1Cl)N1C(=O)[C@@H](CC(=O)O)O[C@H](c2cccc(Cl)c2)[C@H]1c1ccc(Cl)cc1` (single isomer, unassigned) [Example 137, 2-((2R,5R,6R)-6-(3-chlorophenyl)-5-(4-chlorophenyl)-4-((S)-1-((2-chlorophenyl)sulfonyl)butan-2-O-3-oxomorpholin-2-yl)acetic acid or 2-((2S,5R,6R)-6-(3-chlorophenyl)-5-(4-chlorophenyl)-4-((S)-1-((2-chlorophenyl)sulfonyl)butan-2-yl)-3-oxomorpholin-2-yl)acetic acid] the value was 5 nM.
`CC[C@@H](CS(=O)(=O)c1ccccc1Cl)N1C(=O)[C@@H](CC(=O)O)O[C@H](c2cccc(Cl)c2)[C@H]1c1ccc(Cl)cc1` (single isomer, unassigned) [Example 138, 2-((2R,5R,6R)-6-(3-chlorophenyl)-5-(4-chlorophenyl)-4-((S)-1-((2-chlorophenyl)sulfonyl)butan-2-yl)-3-oxomorpholin-2-yl)acetic acid or 2-((2S,5R,6R)-6-(3-chlorophenyl)-5-(4-chlorophenyl)-4-((S)-1-((2-chlorophenyl)sulfonyl)butan-2-yl)-3-oxomorpholin-2-yl)acetic acid] gave an IC50 of 29 nM.
For `CC[C@@H](CS(=O)(=O)C1CCC1)N1C(=O)[C@@H](CC(=O)O)O[C@H](c2cccc(Cl)c2)[C@H]1c1ccc(Cl)cc1` (single isomer, unassigned) [Example 141, 2-((2R,5R,6R)-6-(3-chlorophenyl)-5-(4-chlorophenyl)-4-((S)-1-(cyclobutylsulfonyl)butan-2-yl)-3-oxomorpholin-2-yl)acetic acid or 2-((2S,5R,6R)-6-(3-chlorophenyl)-5-(4-chlorophenyl)-4-((S)-1-(cyclobutylsulfonyl)butan-2-yl)-3-oxomorpholin-2-yl)acetic acid] the value was 1 nM.
For `CC[C@@H](CS(=O)(=O)C1CCC1)N1C(=O)[C@@H](CC(=O)O)O[C@H](c2cccc(Cl)c2)[C@H]1c1ccc(Cl)cc1` (single isomer, unassigned) [Example 142, 2-((2R,5R,6R)-6-(3-chlorophenyl)-5-(4-chlorophenyl)-4-((S)-1-(cyclobutylsulfonyl)butan-2-yl)-3-oxomorpholin-2-yl)acetic acid or 2-((2S,5R,6R)-6-(3-chlorophenyl)-5-(4-chlorophenyl)-4-((S)-1-(cyclobutylsulfonyl)butan-2-yl)-3-oxomorpholin-2-yl)acetic acid] the value was 7 nM; for `CC[C@@H](CS(=O)(=O)C(C)C)N1C(=O)[C@@H](CC(=O)O)O[C@H](c2cc(Cl)cc(Cl)c2)[C@H]1c1ccc(Cl)cc1` (single isomer, unassigned) [Example 145, 2-((2R,5R,6R)-5-(4-chlorophenyl)-6-(3,5-dichlorophenyl)-4-((S)-1-(isopropylsulfonyl)butan-2-yl)-3-oxomorpholin-2-yl)acetic acid or 2-((2S,5R,6R)-5-(4-chlorophenyl)-6-(3,5-dichlorophenyl)-4-((S)-1-(isopropylsulfonyl)butan-2-yl)-3-oxomorpholin-2-yl)acetic acid], 8 nM; for `CC[C@@H](CS(=O)(=O)C(C)C)N1C(=O)[C@@H](CC(=O)O)O[C@H](c2cc(Cl)cc(Cl)c2)[C@H]1c1ccc(Cl)cc1` (single isomer, unassigned) [Example 146, 2-((2R,5R,6R)-5-(4-chlorophenyl)-6-(3,5-dichlorophenyl)-4-((S)-1-(isopropylsulfonyl)butan-2-yl)-3-oxomorpholin-2-yl)acetic acid or 2-((2S,5R,6R)-5-(4-chlorophenyl)-6-(3,5-dichlorophenyl)-4-((S)-1-(isopropylsulfonyl)butan-2-yl)-3-oxomorpholin-2-yl)acetic acid], 15 nM.
Under `CC[C@@H](CS(=O)(=O)C(C)(C)C)N1C(=O)[C@@H](CC(=O)O)O[C@H](c2cc(Cl)cc(Cl)c2)[C@H]1c1ccc(Cl)cc1` (single isomer, unassigned) [Example 147, 2-((2R,5R,6R)-5-(4-chlorophenyl)-6-(3,5-dichlorophenyl)-4-((S)-1-(tert-butylsulfonyl)butan-2-yl)-3-oxomorpholin-2-yl)acetic acid or 2-((2S,5R,6R)-5-(4-chlorophenyl)-6-(3,5-dichlorophenyl)-4-((S)-1-(tert-butylsulfonyl)butan-2-yl)-3-oxomorpholin-2-yl)acetic acid] stands 6 nM; under `CC[C@@H](CS(=O)(=O)C(C)(C)C)N1C(=O)[C@@H](CC(=O)O)O[C@H](c2cc(Cl)cc(Cl)c2)[C@H]1c1ccc(Cl)cc1` (single isomer, unassigned) [Example 148, 2-((2R,5R,6R)-5-(4-chlorophenyl)-6-(3,5-dichlorophenyl)-4-((S)-1-(tert-butylsulfonyl)butan-2-yl)-3-oxomorpholin-2-yl)acetic acid or 2-((2S,5R,6R)-5-(4-chlorophenyl)-6-(3,5-dichlorophenyl)-4-((S)-1-(tert-butylsulfonyl)butan-2-yl)-3-oxomorpholin-2-yl)acetic acid], 7 nM; under `CC(C)S(=O)(=O)C[C@H](C1CC1)N1C(=O)[C@@H](CC(=O)O)O[C@H](c2cccc(Cl)c2)[C@H]1c1ccc(Cl)cc1` (single isomer, unassigned) [Example 156, 2-((2R,5R,6R)-6-(3-chlorophenyl)-5-(4-chlorophenyl)-4-((S)-1-cyclopropyl-2-(isopropylsulfonyl)ethyl)-3-oxomorpholin-2-yl)acetic acid or 2-((2S,5R,6R)-6-(3-chlorophenyl)-5-(4-chlorophenyl)-4-((S)-1-cyclopropyl-2-(isopropylsulfonyl)ethyl)-3-oxomorpholin-2-yl)acetic acid], 1 nM.
In turn, `CC(C)S(=O)(=O)C[C@H](C1CC1)N1C(=O)[C@@H](CC(=O)O)O[C@H](c2cccc(Cl)c2)[C@H]1c1ccc(Cl)cc1` (single isomer, unassigned) [Example 157, 2-((2R,5R,6R)-6-(3-chlorophenyl)-5-(4-chlorophenyl)-4-((S)-1-cyclopropyl-2-(isopropylsulfonyl)ethyl)-3-oxomorpholin-2-yl)acetic acid or 2-((2S,5R,6R)-6-(3-chlorophenyl)-5-(4-chlorophenyl)-4-((S)-1-cyclopropyl-2-(isopropylsulfonyl)ethyl)-3-oxomorpholin-2-yl)acetic acid] displayed an IC50 of 1 nM.
Under `O=C(O)C[C@H]1O[C@H](c2cccc(Cl)c2)[C@@H](c2ccc(Cl)cc2)N([C@H](CN(c2ccccc2F)S(=O)(=O)C2CC2)C2CC2)C1=O` (single isomer, unassigned) [Example 158, 2-((2R,5R,6R)-6-(3-chlorophenyl)-5-(4-chlorophenyl)-4-((S)-1-cyclopropyl-2-(N-(2-fluorophenyl)cyclopropanesulfonamido)ethyl)-3-oxomorpholin-2-yl)acetic acid or 2-((2S,5R,6R)-6-(3-chlorophenyl)-5-(4-chlorophenyl)-4-((S)-1-cyclopropyl-2-(N-(2-fluorophenyl)cyclopropanesulfonamido)ethyl)-3-oxomorpholin-2-yl)acetic acid] stands under 1 nM.

The record behind these values is patent US9376425B2, “Heterocyclic compounds as MDM2 inhibitors for the treatment of cancer” (AMGEN INC., priority 2011, dated 2016).
